According to patent EP2764866A1, “Inhibitors of nedd8-activating enzyme” (IP Gesellschaft für Management mbH, priority 2013, dated 2014):
≈ marks a conversion by molar mass, not a printed value. Where a name gives a salt, the structure may show the parent alone. Read-outs that look alike come from different tables or passages of the source.

Columns and labels:
[1] = from COC(=O)[C@@H]1C[C@@H](Oc2nc3cc(OC)ccc3nc2C#CCCC[C@@H]2C[C@H]2OC(=O)N[C@H](C(=O)O)C(C)(C)C)CN1; amide bond; HATU; DMAc; 86.2 mM; 0.0 °C; 12.0 h
human c-mpl-Ba/F3 cell = assay: Mouse oral administration test (plasma activity in the c-mpl-Ba/F3 proliferation system); assay type: in vivo, male ICR mice; details: for activity at 3 mg/kg: Mus musculus, po, 2 h; for Cell proliferation activity (%) 0.3%: 0.3% blood plasma concentration; for oral absorption: conclusion from the mouse oral administration test
Human c-mpl-Ba/F3 cells = assay: Cell proliferation test for human c-mpl-Ba/F3 cells; assay type: cell-based
Experimental: Test Example I Cell Proliferation Test for Human c-mpl-Ba/F3 Cells: Human c-mpl-Ba/F3 cells at a concentration of 2 x 10^5 cells/mL were cultured at 37 °C on a 96 well microplate using RPMI 1640 culture medium (100 microliter/well) containing 10% fetal calf serum to which various concentrations of the test compound was added. After 24 hours from the start of culturing, 10 microliter/well of WST-1/1-methoxy PMS (cell measuring kit, Dojin) was added. Immediately after the addition and two hours later, the A450/A650 absorbance was measured using a microplate reader (Model 3350, Bio-Rad), and the increase in absorbance after 2 hours was interpreted to represent the proliferation activity of each test compound. […] Furthermore, the maximum cell proliferation activity of compound X maleic acid salt C type crystals ({drug1b}) was 102%, based on the maximum cell proliferation activity of rhTPO being 100%. […] Therefore, compound X maleic acid salt C type crystals ({drug1b}) are useful for treating and preventing various types of thrombocytopenia by having a thrombocytosis effect. […]

[2] = tested on: Ba/F3 cells where c-mpl was not introduced; assay: Cell proliferation test in Ba/F3 cells without c-mpl; assay type: cell-based
[3] = Pharmacokinetics of Compound [1] in Phase I and II studies; details: continuous daily dosing regimen, doses of 400 mg/day and above
HCC78 cells = assay: cells; details: Homo sapiens, HCC78, read-out: IC50 for inhibition of HCC78 cell viability
[4] = Hygroscopicity (water absorbed); assay type: physicochemical
[5] = pH 1, compared to the free acid form
[6] = dosed at 10mg/kg, compared to the free acid form
pKa = assay type: physicochemical
Description: Suitable alkalizing agents include but are not limited to organic and inorganic basic compounds of a wide range of aqueous solubilities and molecular weights and mixtures thereof. Examples of inorganic basic salts include ammonium hydroxide, alkali metal salts, alkaline earth metal salts such as magnesium oxide, magnesium hydroxide, calcium hydroxide, sodium hydroxide, potassium hydroxide, aluminium hydroxide, potassium carbonate, sodium bicarbonate and the like and mixtures thereof. In particular, an alkalizing agent is selected from magnesium oxide, calcium carbonate, calcium phosphate and combinations thereof. More particularly, the alkalizing agent is magnesium oxide. […] Examples of precipitation inhibitors include but are not limited to polyvinyl pyrrolidone, for example those products known as PVP K30, PVP K29/32 and PVPP XL, and hydroxy propyl methyl cellulose (HPMC), for example those products known as […]® low viscous hypromellose-based water-soluble film coating agent. […] As used herein, the term "oral dosage form" refers to physically discrete units suitable as unitary dosages for humans and other mammals, each unit containing a predetermined quantity of a therapeutic agent in association with one or more pharmaceutically acceptable carrier. […]

physchem = details: pH 1.2, simulated gastric fluid
[7] = 3 mg/kg orally, blood 2 hours after administration, maximum activity of each test compound = 100%

Molecule `COC(=O)[C@@H]1C[C@@H]2CN1C(=O)[C@H](C(C)(C)C)NC(=O)O[C@@H]1C[C@H]1CCCC#Cc1nc3ccc(OC)cc3nc1O2` has a ring closure, yield of all isomers [1] of 88.6%.

For `O=C(Nc1nc(-c2cc(Cl)cs2)c(N2CCN(C3CCCCC3)CC2)s1)c1cnc(N2CCC(C(=O)O)CC2)c(Cl)c1` [1-(3-chloro-5-{[4-(4-chlorothiophen-2-yl)-5-(4-cyclohexylpiperazin-1-yl)thiazol-2-yl]carbamoyl}pyridin-2-yl) piperidine-4-carboxylic acid maleic acid salt, reference compound], the activity at 3 mg/kg (human c-mpl-Ba/F3 cell; 3 mg/kg orally, blood 2 hours after administration, 10% blood plasma concentration, maximum activity of each test compound = 100%, read-out: Cell proliferation activity (%) 10%) was over 80%.

Molecule `O=C(Nc1nc(-c2cc(Cl)cs2)c(N2CCN(C3CCCCC3)CC2)s1)c1cnc(N2CCC(C(=O)O)CC2)c(Cl)c1` [1-(3-chloro-5-{[4-(4-chlorothiophen-2-yl)-5-(4-cyclohexylpiperazin-1-yl)thiazol-2-yl]carbamoyl}pyridin-2-yl) piperidine-4-carboxylic acid maleic acid salt] has an EC50 (Human c-mpl-Ba/F3 cells; Homo sapiens, 24 hours culture, WST-1/1-methoxy PMS readout, read-out: cell proliferation effect, EC50) of 2 nM and an activity at 3 mg/kg (human c-mpl-Ba/F3 cell; 3 mg/kg orally, blood 2 hours after administration, 0.1% blood plasma concentration, maximum activity of each test compound = 100%, read-out: Cell proliferation activity (%) 0.1%) of 30%.

In the case of `O=C(Nc1nc(-c2cc(Cl)cs2)c(N2CCN(C3CCCCC3)CC2)s1)c1cnc(N2CCC(C(=O)O)CC2)c(Cl)c1` [Compound X hydrochloride, reference compound], the “Cell proliferation activity (%) 0.3%” value (human c-mpl-Ba/F3 cell; [7]) is reported as under 10% and the “Cell proliferation activity (%) 10%” value (human c-mpl-Ba/F3 cell; 3 mg/kg orally, blood 2 hours after administration, 10% blood plasma concentration, maximum activity of each test compound = 100%) is reported as 34%.

With `O=C(Nc1nc(-c2cc(Cl)cs2)c(N2CCN(C3CCCCC3)CC2)s1)c1cnc(N2CCC(C(=O)O)CC2)c(Cl)c1.O=C(O)/C=C\C(=O)O` [Compound X maleic acid salt A type crystal] [1-(3-chloro-5-{[4-(4-chlorothiophen-2-yl)-5-(4-cyclohexylpiperazin-1-yl)thiazol-2-yl]carbamoyl}pyridin-2-yl) piperidine-4-carboxylic acid maleic acid salt, reference compound] the “Cell proliferation activity (%) 0.3%” value (human c-mpl-Ba/F3 cell; [7]) was 55% and the oral absorption (human c-mpl-Ba/F3 cell; listed as compound X maleic acid salt A type crystals) was “excellent oral absorption”.

With `O=C(Nc1nc(-c2cc(Cl)cs2)c(N2CCN(C3CCCCC3)CC2)s1)c1cnc(N2CCC(C(=O)O)CC2)c(Cl)c1.O=C(O)/C=C\C(=O)O` [Compound X maleic acid salt B type crystal] [1-(3-chloro-5-{[4-(4-chlorothiophen-2-yl)-5-(4-cyclohexylpiperazin-1-yl)thiazol-2-yl]carbamoyl}pyridin-2-yl) piperidine-4-carboxylic acid maleic acid salt] the “Cell proliferation activity (%) 0.3%” value (human c-mpl-Ba/F3 cell; [7]) was under 10% and the oral absorption (human c-mpl-Ba/F3 cell; listed as compound X maleic acid B type crystals) was “inferior oral absorption”.

For `O=C(Nc1nc(-c2cc(Cl)cs2)c(N2CCN(C3CCCCC3)CC2)s1)c1cnc(N2CCC(C(=O)O)CC2)c(Cl)c1.O=C(O)/C=C\C(=O)O` [Compound X maleic acid salt C type crystal] [1-(3-chloro-5-{[4-(4-chlorothiophen-2-yl)-5-(4-cyclohexylpiperazin-1-yl)thiazol-2-yl]carbamoyl}pyridin-2-yl) piperidine-4-carboxylic acid maleic acid salt], the “maximum cell proliferation activity” value (Human c-mpl-Ba/F3 cells; based on the maximum cell proliferation activity of rhTPO being 100%) was 102%, the cell proliferation effect [2] was “not observed” and the “Cell proliferation activity (%) 0.3%” value (human c-mpl-Ba/F3 cell; [7]) was over 80%. For the same molecule, the oral absorption (human c-mpl-Ba/F3 cell) was “excellent oral absorption”.

With `CN1CCN(c2ccc3nc(-c4c(N)c5c(F)cccc5[nH]c4=O)[nH]c3c2)CC1` [Compound [1]] the exposure [3] was “prolonged over-proportional exposure”.

In the case of `C[C@@H](Oc1cc(-c2cnn(C3CCNCC3)c2)cnc1N)c1c(Cl)ccc(F)c1Cl` [Crizotinib, 3-[(R)-1-(2,6-dichloro-3-fluoro-phenyl)-ethoxy]-5-(1-piperidin-4-yl-1-H -pyrazol-4-yl)-pyridin-2-ylamine], the IC50 (HCC78 cells) is reported as about 59 nM.

With `CCC(CC)Nc1c(Nc2ccc(Cl)c(S(=O)(=O)N(C)OC)c2O)c(=O)c1=O` [choline salt, 6-chloro-3-[2-(1-ethyl-propylamino)-3,4-dioxo-cyclobut-1-enylamino]-2-hydroxy-N-methoxy-N-methyl-benzenesulfonamide choline] the “amount of water absorbed” value ([4]; after 1 day at 80% humidity) was 0.7 % by weight, the “amount of water absorbed” value ([4]; after 1 day at 92% humidity) was 0.6 % by weight and the dissolution rate [5] was “much improved”. The oral exposure [6] was “much improved”.

In the case of `CCC(CC)Nc1c(Nc2ccc(Cl)c(S(=O)(=O)N(C)OC)c2O)c(=O)c1=O` [free acid, 6-chloro-3-[2-(1-ethyl-propylamino)-3,4-dioxo-cyclobut-1-enylamino]-2-hydroxy-N-methoxy-N-methyl-benzenesulfonamide, reference compound], the “amount of water absorbed” value ([4]; after 1 day at 80% humidity) is reported as 2.4 % by weight, the “amount of water absorbed” value ([4]; after 1 day at 92% humidity) is reported as 2.8 % by weight and the pKa (pKa) is reported as 5.4. It also gave a solubility (physchem) of 1 µg/mL (≈ 2.32 µM).
